Tests used:
[1] = FtCl (Ft Cleaning) 300 cleaning and whitening ability test on Martindale tester, Example 1; conditions: Δ by 4 cycles values
Protocol: To determine resistance of dental enamel to attrition on a Martindale tester (hereinafter—Tester) the sets were analyzed—samples of solutions of piezoelectric materials and tooth brushes based on the following indicator: • FtCl (Ft Cleaning) 300, characterizes the cleaning ability of a solution (paste) by making 300 cleaning movements (mah) in a suspension of piezoelectric materials. The indicator is used as an analog of PCR (Pellicle Cleaning Ration) and it enables quantitative assessment of the cleaning and whitening action of a solution (paste) in case of a single-time cleaning. […]
Determination of FtCl300 for a solution of piezoelectric materials: • path: ∞L=25 mm, • rate 150 mah/min, • impact—300 mah, • brush load 325 g, • minimum quantity of parallel determinations—one per each paste with a test brush, • a test tooth brush: tooth brush PROFESSIONAL COMPLETE of medium hardness, • use one brush head for not more than 3-4 cycles, i.e. for 900-1200 mah, owing to wear out of bristles; then replace the brush head with a new one. […]
FtCl300 values were calculated by the formula: FtCl300=100*(Lcl−Lcol)/(Lin−Lcol) Preparation of Solutions: • 1. […]
Test results. […] In this model any color is determined with lightness (L-Lightness) and two chromatic components: channel a—colors from dark green through gray to purple, channel b—colors from blue through gray to yellow. […]

[2] = Antioxidant activity in relation to ascorbic acid by the ferricyanide spectrophotometric method; conditions: 2% solution in distilled water
Description: Materials and methods. The test item was 2% seignette salt solution in distilled water.

[3] = concentration of 0.01%; vegetable oils subjected to heating; cited from earlier work

Row | Compound | difference in FtCl300 to barium titanate [1] | Antioxidant activity (AOA) [2] | Antioxidant activity, AOA in relation to vitamin C (higher than vitamin C) [2] | antioxidant effect [3]
1 | O.O.O.O.O=C([O-])C(O)C(O)C(=O)[O-].[K+].[Na+] (stereo not shown) [seignette salt, potassium sodium tartrate KNaC4H4O6·4H2O] | 0.19 | 0.00013 mol-eq/l | 13.7% | –
2 | O=C([O-])C(O)C(O)C(=O)[O-].[Na+].[Na+] (stereo not shown) [sodium tartrate] | – | – | – | marked antioxidant effect

Reference: patent publication US12616646B2, “Use of rochelle salt” (SKYLAB AG, priority 2021, dated 2026)
